Activity calls are given as the source filed them.
Experiments:
[1] = target: T1, Calpain-2 catalytic subunit (Sus scrofa, UniProt P43367); assay: pig calpain II inhibitor potency, dose response, biochemical, fluorogenic peptide substrate (AID 1420); format: functional
T1 sequence (P43367 whole entry): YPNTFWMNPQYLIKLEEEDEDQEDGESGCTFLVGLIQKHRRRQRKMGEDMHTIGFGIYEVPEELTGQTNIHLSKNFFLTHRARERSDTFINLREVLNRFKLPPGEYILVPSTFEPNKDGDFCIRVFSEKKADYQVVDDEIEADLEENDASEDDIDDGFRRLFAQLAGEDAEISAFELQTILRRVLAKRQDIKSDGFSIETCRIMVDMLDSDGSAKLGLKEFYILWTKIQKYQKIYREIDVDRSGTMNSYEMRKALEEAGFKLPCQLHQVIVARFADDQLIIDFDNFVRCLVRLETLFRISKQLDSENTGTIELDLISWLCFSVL

[2] = target: T2, Ubiquitin-conjugating enzyme E2 N (Homo sapiens, UniProt P61088); format: functional;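 further: Dose-response confirmation in a TR-FRET assay detecting UBC13-driven polyubiquitin chain formation, inhibition measured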
T2 sequence (P61088 whole entry): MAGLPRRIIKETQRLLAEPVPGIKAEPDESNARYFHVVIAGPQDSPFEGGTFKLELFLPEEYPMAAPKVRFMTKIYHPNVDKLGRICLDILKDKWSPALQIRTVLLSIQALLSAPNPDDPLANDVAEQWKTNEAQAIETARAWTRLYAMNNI

INS1 = assay: beta cell apoptosis inhibitors, cytokine rescue, dose response, luminescence, retest (AID 449756); format: functional, cell-based; settings: Rattus norvegicus;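 further: cell death triggered by IL-1 beta plus TNF-alpha plus IFN-gamma mixture; protective hits raise ATP signal compared with cytokine alone wells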
Protein skinhead-1 = target: T3, Protein skinhead-1 (Caenorhabditis elegans, UniProt P34707); format: functional
T3 sequence (P34707 whole entry): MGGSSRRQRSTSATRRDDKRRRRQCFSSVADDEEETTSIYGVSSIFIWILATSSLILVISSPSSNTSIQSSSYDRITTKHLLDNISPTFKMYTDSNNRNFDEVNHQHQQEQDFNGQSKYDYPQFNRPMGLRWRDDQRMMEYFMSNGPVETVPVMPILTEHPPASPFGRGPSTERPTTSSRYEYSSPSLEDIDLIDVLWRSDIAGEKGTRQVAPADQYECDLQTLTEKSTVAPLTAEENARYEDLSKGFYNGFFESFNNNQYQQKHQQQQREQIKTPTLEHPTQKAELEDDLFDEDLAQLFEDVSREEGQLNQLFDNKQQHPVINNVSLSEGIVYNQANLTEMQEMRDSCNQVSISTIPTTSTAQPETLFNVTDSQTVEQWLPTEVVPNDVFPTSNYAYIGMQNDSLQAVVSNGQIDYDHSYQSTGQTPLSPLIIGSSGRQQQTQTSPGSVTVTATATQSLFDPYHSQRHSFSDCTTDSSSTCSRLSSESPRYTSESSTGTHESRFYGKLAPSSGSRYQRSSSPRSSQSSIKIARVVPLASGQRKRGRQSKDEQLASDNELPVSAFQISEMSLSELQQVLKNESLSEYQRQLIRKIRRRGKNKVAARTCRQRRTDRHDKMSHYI

Nonstructural protein 1 = Nonstructural protein 1 (Influenza A virus, UniProt Q194T2); format: functional, Influenza A virus (A/California/07/2009(H1N1))
Sequence of Nonstructural protein 1 (Q194T2 whole entry): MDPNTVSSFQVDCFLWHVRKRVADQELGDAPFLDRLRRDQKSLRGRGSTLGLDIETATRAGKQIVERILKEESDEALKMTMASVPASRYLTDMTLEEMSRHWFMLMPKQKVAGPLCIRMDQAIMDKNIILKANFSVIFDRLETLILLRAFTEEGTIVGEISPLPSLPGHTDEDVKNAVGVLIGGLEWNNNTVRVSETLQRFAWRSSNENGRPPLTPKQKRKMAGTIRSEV

[3] = Luminescence Cell-Based Dose Retest to Confirm Inhibitors of Cancer Stem Cells. [Related pubchem assays (depositor defined):AID2717, AID2721]; format: functional, Homo sapiens; settings: Homo sapiens
Fatty acid synthase [4] = target: T4, Fatty acid synthase (Homo sapiens, UniProt P49327); assay: FAS thioesterase domain inhibitors, dose response, biochemical, kinetic fluorescence intensity (AID 624326); format: functional;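 further: rate of fluorescence rise from hydrolysis of a fluorogenic O-methyl fluorescein ester substrate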
T4 sequence (P49327 whole entry, the tested form may be a part): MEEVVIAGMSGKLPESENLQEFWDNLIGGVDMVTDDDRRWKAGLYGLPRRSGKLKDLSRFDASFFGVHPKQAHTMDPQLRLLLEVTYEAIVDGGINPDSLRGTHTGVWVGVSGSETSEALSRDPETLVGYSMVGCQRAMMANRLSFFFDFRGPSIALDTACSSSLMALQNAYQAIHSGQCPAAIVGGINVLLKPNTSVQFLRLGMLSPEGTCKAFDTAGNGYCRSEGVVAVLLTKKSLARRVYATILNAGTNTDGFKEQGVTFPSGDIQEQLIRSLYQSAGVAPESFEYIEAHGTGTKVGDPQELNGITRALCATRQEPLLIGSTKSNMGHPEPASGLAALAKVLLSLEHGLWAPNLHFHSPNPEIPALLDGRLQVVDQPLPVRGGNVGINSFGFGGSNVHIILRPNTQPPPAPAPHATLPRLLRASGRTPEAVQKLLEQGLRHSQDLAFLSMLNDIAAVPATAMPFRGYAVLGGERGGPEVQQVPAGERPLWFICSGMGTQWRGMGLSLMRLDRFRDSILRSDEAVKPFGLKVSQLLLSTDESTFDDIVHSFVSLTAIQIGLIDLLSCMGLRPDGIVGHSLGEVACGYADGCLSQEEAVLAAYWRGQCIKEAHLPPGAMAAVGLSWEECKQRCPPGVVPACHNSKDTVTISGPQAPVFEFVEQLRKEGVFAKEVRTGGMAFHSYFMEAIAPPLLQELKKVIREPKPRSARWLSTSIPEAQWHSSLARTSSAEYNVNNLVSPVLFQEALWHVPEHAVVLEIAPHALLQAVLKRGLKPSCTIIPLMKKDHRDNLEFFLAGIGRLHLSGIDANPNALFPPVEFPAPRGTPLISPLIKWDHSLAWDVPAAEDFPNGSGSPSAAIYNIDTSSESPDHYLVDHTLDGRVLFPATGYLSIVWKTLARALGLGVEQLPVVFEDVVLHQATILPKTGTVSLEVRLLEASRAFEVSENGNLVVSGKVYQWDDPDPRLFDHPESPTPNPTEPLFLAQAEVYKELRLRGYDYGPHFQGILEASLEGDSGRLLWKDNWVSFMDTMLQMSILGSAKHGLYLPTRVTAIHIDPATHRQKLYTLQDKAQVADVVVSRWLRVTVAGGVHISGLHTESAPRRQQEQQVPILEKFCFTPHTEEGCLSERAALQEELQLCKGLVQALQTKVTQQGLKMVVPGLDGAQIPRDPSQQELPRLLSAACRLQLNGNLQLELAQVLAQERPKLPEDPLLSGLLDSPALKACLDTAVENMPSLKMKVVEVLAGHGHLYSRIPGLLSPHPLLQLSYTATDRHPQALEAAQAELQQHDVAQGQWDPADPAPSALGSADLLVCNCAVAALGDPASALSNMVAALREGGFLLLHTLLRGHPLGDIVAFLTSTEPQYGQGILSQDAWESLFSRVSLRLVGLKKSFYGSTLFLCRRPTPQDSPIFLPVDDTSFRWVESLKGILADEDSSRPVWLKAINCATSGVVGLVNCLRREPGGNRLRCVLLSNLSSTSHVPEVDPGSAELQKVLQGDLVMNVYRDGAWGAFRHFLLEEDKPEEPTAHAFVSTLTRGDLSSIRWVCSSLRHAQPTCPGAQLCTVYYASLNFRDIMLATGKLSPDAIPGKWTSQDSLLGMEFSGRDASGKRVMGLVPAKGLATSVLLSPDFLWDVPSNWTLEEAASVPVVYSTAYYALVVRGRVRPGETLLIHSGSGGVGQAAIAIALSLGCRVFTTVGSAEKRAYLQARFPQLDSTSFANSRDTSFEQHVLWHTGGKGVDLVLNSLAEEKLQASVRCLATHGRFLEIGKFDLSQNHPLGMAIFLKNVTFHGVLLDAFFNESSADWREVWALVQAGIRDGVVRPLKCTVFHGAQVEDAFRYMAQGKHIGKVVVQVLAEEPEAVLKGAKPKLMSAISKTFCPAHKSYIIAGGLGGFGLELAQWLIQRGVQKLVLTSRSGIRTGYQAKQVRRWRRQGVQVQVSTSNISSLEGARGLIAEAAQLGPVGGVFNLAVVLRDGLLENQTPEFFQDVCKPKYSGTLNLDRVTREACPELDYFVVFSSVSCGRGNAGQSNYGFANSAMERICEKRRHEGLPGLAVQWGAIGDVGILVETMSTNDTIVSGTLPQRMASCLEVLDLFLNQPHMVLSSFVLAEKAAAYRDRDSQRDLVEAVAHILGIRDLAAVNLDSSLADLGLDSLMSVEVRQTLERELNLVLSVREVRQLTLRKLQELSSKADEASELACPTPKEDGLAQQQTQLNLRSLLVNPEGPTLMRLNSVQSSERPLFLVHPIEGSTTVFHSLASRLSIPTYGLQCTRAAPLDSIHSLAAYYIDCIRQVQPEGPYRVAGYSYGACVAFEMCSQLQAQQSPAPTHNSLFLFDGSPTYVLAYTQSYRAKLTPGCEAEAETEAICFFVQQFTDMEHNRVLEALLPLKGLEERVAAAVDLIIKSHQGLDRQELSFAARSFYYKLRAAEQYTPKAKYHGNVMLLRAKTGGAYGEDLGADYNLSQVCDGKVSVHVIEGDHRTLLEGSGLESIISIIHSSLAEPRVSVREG

Fatty acid synthase [5] = target: T4, Fatty acid synthase; assay: FAS thioesterase domain inhibitors, dose response, biochemical, endpoint fluorescence intensity, uHTS hits (AID 624327); format: functional;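 further: fluorescence from hydrolysis of an O-methyl fluorescein acyl ester substrate by the enzyme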
Protein RecA = target: T5, Protein RecA (Mycobacterium tuberculosis, UniProt P9WHJ3); assay: Fluorescence Cell-Free Homogeneous Dose Retest to Identify Inhibitors of RecA-Intein Splicing Activity. [Related pubchem assays (depositor defined):AID2097, AID2223, AID489010, AID492950]; format: functional
T5 sequence (P9WHJ3 whole entry): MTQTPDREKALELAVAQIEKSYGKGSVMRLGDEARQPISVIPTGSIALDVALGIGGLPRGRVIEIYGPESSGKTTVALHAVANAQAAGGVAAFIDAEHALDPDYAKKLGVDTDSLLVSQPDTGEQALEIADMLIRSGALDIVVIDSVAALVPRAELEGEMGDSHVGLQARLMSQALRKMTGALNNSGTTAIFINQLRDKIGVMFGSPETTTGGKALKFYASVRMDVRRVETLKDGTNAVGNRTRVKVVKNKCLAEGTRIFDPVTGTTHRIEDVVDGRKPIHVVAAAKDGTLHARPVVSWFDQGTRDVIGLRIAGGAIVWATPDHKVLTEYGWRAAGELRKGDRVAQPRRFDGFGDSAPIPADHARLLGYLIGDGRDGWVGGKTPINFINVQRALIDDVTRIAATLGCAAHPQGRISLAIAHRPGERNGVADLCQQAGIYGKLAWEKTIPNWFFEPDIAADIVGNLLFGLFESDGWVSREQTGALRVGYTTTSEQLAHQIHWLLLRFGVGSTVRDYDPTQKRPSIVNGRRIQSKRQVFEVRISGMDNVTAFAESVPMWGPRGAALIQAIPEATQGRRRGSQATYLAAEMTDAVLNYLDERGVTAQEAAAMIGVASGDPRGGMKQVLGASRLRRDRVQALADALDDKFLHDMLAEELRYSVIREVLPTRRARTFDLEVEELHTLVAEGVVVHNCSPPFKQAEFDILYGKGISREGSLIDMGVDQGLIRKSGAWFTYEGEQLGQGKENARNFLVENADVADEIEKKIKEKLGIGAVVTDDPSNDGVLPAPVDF

[6] = target: T6, Histone-lysine N-methyltransferase NSD2 (Homo sapiens, UniProt O96028); format: biochemical
T6 sequence (O96028 whole entry): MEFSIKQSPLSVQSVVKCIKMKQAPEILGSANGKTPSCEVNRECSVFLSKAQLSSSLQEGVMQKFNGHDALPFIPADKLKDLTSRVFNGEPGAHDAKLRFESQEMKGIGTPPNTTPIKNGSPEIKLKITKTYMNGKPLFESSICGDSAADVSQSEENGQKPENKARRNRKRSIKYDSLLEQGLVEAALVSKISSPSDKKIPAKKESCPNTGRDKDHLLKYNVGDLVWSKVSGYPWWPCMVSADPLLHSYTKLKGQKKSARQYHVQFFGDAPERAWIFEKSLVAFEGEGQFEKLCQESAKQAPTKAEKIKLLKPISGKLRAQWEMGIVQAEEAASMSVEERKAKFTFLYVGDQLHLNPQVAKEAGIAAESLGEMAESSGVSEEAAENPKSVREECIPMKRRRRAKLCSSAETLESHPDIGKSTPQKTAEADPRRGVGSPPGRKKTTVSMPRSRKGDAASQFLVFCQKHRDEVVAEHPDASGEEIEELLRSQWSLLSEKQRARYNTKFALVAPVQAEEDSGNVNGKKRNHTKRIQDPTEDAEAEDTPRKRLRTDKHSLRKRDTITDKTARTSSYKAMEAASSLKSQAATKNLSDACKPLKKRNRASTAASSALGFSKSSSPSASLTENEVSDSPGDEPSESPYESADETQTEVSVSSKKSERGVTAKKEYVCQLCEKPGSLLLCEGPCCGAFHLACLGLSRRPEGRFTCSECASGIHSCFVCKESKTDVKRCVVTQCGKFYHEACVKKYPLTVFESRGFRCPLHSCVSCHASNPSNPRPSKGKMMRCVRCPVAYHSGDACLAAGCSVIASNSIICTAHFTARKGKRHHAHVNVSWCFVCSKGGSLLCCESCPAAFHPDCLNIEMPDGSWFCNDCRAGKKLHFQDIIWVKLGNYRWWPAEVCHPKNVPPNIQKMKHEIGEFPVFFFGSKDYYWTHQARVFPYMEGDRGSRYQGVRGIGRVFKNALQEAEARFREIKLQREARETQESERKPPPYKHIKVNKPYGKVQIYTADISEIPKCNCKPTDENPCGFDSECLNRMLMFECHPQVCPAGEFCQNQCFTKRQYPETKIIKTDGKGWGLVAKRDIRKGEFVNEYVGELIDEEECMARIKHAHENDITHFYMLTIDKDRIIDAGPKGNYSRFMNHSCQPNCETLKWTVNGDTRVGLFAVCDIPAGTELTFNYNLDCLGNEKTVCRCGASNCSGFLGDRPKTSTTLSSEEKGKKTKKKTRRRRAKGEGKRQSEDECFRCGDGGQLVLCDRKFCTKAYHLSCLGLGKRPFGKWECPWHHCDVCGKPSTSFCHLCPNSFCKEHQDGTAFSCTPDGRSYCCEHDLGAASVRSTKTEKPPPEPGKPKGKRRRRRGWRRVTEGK

[7] = target: T7, Replicative DNA helicase DnaB (Mycobacterium tuberculosis, UniProt P9WMR3); assay: DnaB intein splicing inhibitors, dose response, biochemical, cell-free fluorescence (AID 449749); format: functional
T7 sequence (P9WMR3 whole entry): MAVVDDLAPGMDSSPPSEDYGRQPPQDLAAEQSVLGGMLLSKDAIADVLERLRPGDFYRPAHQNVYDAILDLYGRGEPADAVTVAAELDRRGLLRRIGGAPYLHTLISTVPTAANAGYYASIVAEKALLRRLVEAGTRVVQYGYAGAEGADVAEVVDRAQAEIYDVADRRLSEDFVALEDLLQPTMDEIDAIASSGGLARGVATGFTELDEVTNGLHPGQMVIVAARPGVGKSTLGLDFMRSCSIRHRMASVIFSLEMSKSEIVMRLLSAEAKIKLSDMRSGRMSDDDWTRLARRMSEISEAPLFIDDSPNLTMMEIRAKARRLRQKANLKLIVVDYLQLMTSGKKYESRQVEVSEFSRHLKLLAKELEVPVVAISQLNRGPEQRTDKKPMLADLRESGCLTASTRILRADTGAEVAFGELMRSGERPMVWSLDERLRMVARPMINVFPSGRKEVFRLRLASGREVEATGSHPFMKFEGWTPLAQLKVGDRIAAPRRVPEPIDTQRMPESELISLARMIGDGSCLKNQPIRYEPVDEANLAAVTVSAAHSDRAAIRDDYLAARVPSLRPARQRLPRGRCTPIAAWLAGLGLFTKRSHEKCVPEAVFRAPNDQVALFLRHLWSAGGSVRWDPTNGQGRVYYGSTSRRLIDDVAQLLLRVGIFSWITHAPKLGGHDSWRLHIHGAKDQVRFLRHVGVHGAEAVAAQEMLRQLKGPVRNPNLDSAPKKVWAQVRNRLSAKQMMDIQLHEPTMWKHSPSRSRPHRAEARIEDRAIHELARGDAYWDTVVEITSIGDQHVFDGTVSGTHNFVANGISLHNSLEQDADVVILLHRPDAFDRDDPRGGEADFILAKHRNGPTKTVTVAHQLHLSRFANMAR

Vero = assay: cells; format: functional; settings: Chlorocebus sabaeus

Structure (SMILES): Cc1cc(C)c(NC(=S)NC(=O)c2ccc(-c3ccccc3)cc2)c(C)c1
- IC50 [1]: 12.4 µM (not active)

Structure (SMILES): Cc1ccc(C(C(=O)NCC2CCCO2)N(C(=O)c2snc(C(N)=O)c2N)c2ccc(F)cc2)o1 (stereo not given)
- IC50 [2]: > 20 µM (inactive)

Structure (SMILES): CCOc1ccc(OCC)c(S(=O)(=O)NCCOC23CC4CC(CC(C4)C2)C3)c1
- IC50 [1]: 8.71 µM (not active)
- AC50 (INS1): 8.76 µM (active)

Structure (SMILES): CCOc1ccc(NS(=O)(=O)c2ccc(NC(=S)NC(=O)CC(C)C)cc2)cc1
- IC50 [1]: 6.89 µM (not active)

Structure (SMILES): c1ccc(CSc2ncnc3sccc23)cc1
- IC50 (Protein skinhead-1): 92.7 µM (inactive)

Structure (SMILES): Cc1cc2cc(CN=C(S)NCc3ccccc3)ccc2n1C
- IC50 (Protein skinhead-1): > 100 µM (inactive)

Structure (SMILES): CC(=O)c1ccc(Sc2ccc(C(C)=O)cc2)cc1
- IC50 [2]: > 20 µM (inactive)

Structure (SMILES): Cc1ccc(N=Nc2ccc3ccccc3c2O)cc1
- IC50 (Nonstructural protein 1): 5.83 µM (active)

Structure (SMILES): CCN1CCN(Cc2ccc(NC(=O)c3cc(NC(=O)c4cnn(-c5ccccc5)c4N)cc(OC)c3)cc2C(F)(F)F)CC1
- AC50 [3]: 11.7 µM (active)
- AC50 (INS1): 19.6 µM (active)
- IC50 [2]: > 20 µM (inactive)

Structure (SMILES): CCCOc1ccc(NC(=O)CC2C(=O)N(C)C(=S)N2Cc2cccs2)cc1 (stereo not given)
- IC50 (Fatty acid synthase [4]): 7.42 µM (active)
- IC50 (Fatty acid synthase [5]): 9.62 µM (active)

Structure (SMILES): O=C(Nc1cccc(Cl)c1)c1cc(-c2ccco2)on1
- IC50 (Protein skinhead-1): > 100 µM (inactive)

Structure (SMILES): O=C(O)c1ccc(CSc2nc[nH]n2)cc1
- IC50 [1]: < 0.4 µM (not active)

Structure (SMILES): COc1cc(NC(C)CCCN)c2ncccc2c1Oc1ccccc1 (stereo not given)
- EC50 (Protein RecA): 7.94 µM (active)
- AC50 [6]: 0.466 µM (active)
- AC50 [7]: > 380 µM (inactive)

Structure (SMILES): O=C(N=Nc1c(O)[nH]c2ccc(Cl)cc12)c1cc(-c2cccs2)nc2ccccc12
- IC50 [1]: 10.3 µM (not active)

Structure (SMILES): COCCOc1ccc(C(F)(F)F)cc1NC(=O)COC(=O)c1cc([N+](=O)[O-])ccc1N1CCOCC1
- IC50 (Fatty acid synthase [4]): 6.42 µM (active)
- IC50 (Fatty acid synthase [5]): 5.58 µM (active)

Structure (SMILES): Cc1cc(Br)cn2c(Cc3ccsc3)c(-c3ccccc3)nc12
- IC50 (Protein skinhead-1): > 100 µM (inactive)

Structure (SMILES): COc1ccc(OC)c(NC2c3ccccc3C(=O)N2Cc2ccc3c(c2)OCO3)c1 (stereo not given)
- IC50 (Nonstructural protein 1): 57.5 µM (active)

Structure (SMILES): O=C(COC(=O)c1cc([N+](=O)[O-])ccc1NCc1ccccc1)NC1CCCCC1
- CC50 (Vero): > 25 µM (active)
- IC50 (Fatty acid synthase [4]): 1.64 µM (active)
- IC50 (Fatty acid synthase [5]): 1.31 µM (active)

Structure (SMILES): Cc1cc2cc(CNC(=O)C3CC3)ccc2n1C
- IC50 (Protein skinhead-1): > 100 µM (inactive)

Structure (SMILES): COc1cc2sc(-c3ccccc3OC)c(-c3ccc(OCCN4CCCCC4)cc3)c2cc1OC
- AC50 [3]: 6.45 µM (active)
- AC50 (INS1): 7.69 µM (active)
- IC50 [2]: > 20 µM (inactive)

Structure (SMILES): c1ccc(SCc2cc(-c3ccccc3)no2)cc1
- IC50 (Protein skinhead-1): 17.6 µM (active)

Structure (SMILES): CC(C)Oc1ccccc1/C=N/Nc1ccccc1[N+](=O)[O-]
- IC50 (Nonstructural protein 1): 31.2 µM (active)

Structure (SMILES): CC(=O)NNc1nc(-c2ccccc2)cs1
- IC50 (Fatty acid synthase [4]): 18.2 µM (active)
- IC50 (Fatty acid synthase [5]): 18.6 µM (active)

Reference: ChEMBL document CHEMBL1201862, “PubChem BioAssay data set” (2004)
